The assay has as its target KH domain-containing RNA-binding protein QKI (Mus musculus) (UniProt Q9QYS9). Kind of assay: blockers of quaking interaction with RNA – biochemical, fluorescence polarization, mouse QKI, powder samples, gld-1 inhibitor project, dose response (AID 488770). To be noted: 1536-well. (Polarisation of emitted light reports the rotation of a fluorescent probe.)

Data on 15 compounds can be found in PubChem BioAssay AID488770 (The Scripps Research Institute Molecular Screening Center, 2010).

The source made the active and inactive calls.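 The calls were made as follows: active = IC50 at or below 10 µM; inactive = IC50 above 10 µM.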

Sequence of KH domain-containing RNA-binding protein QKI (Mus musculus) (Q9QYS9 whole entry, looked up, the tested form may be a part): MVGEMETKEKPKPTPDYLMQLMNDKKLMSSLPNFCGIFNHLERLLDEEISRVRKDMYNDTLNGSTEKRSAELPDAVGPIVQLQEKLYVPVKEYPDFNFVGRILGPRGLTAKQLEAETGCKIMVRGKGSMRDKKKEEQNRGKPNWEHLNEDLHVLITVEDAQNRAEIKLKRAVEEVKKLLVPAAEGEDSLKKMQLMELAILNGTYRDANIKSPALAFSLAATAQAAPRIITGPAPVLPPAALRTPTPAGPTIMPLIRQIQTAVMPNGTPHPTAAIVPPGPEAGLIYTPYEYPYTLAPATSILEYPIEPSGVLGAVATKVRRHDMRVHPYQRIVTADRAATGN

For orientation: IC50 means the midpoint of a concentration-inhibition curve. As for `CCN(CC)S(=O)(=O)c1ccc(N2CCCC2)c(NS(=O)(=O)c2ccc(F)cc2)c1`, the IC50 is 1620 nM. As for `O=C(CN1C(=O)NC2(CCCCC2)C1=O)Oc1ccc2c(C(F)(F)F)cc(=O)oc2c1`, the IC50 was 2130 nM.

In the case of `CCCCn1c(=O)[nH]c2nc3cc(NC(C)=O)ccc3nc2c1=O`, the 50% inhibitory concentration (IC50) is 1590 nM. As for `Nc1ccc(O)c2c1C(=O)c1ccccc1C2=O`, the figure is 2280 nM; as for `Nc1c(O)ccc2c1C(=O)c1ccccc1C2=O`, 2530 nM; as for `O=C1C2=C(SCCS2)C(=O)N1CCCO`, 2240 nM.

Consider `O=c1[nH]c2cc3ccccc3cc2nc1C(F)(F)F`, for which the IC50 was 1170 nM. As to `Nc1ccc2nonc2c1[N+](=O)[O-]`, the IC50 was > 59600 nM (inactive). On to `CCOC(=O)c1c(C)oc2c1cc(NS(=O)(=O)c1ccc(C)cc1)c1ccccc12`, for which the IC50 is > 59600 nM (inactive). As to `Cc1ccc(S(=O)(=O)Nc2cc3c(C(=O)Nc4ccccc4)c(C)oc3c3ccccc23)c(C)c1`, the IC50 is 419 nM.

In the case of `O=c1[nH]c(=O)c2nc3ccccc3nc2[nH]1`, the IC50 entry was “inactive”. With `CC1=CC(=O)c2c(O)ccc(O)c2C1=O`, the IC50 is 5620 nM.

Regarding `Cc1ccc(S(=O)(=O)Nc2cc3c(C(=O)Nc4ccccc4)c(C)oc3c3ccccc23)cc1`, the half-maximal inhibitory concentration (IC50) is 262 nM. For `COc1ccc(C=Nc2c(-c3ccco3)nc3ccccn23)cc1OC`, the IC50 entry was “inactive”. For `COc1ccc(/C=C(\CC(=O)O)c2nc3ccccc3s2)cc1O` the value was 155 nM.
